For data set [1], the system named is MCF7. Put plainly: Induction of apoptosis in human MCF7 cells assessed as early apoptotic cells at 25 uM incubated for 24 hrs by Annexin V-FITC/Propidium Iodide staining based flow cytometry analysis (reference value: 2.54 %). The class given is functional. In general terms: A flow cytometer gives signals particle by particle.
The next data set relates to HepG2. Description: Antiproliferative activity against human HepG2 cells assessed as inhibition of cell growth incubated for 48 hrs by MTT assay. The following applies: HepG2, 48 h. The class given is functional, cell-based. (In general: Tetrazolium dyes change colour on reduction, which living cells bring about.)
Another data set concerns MDA-MB-231. Put plainly: Antiproliferative activity against human MDA-MB-231 cells assessed as inhibition of cell growth incubated for 48 hrs by MTT assay. The class given is functional, cell-based. The following applies: MDA-MB-231, 48 h.
Data set [2] has as its system MCF7. Put plainly: Antiproliferative activity against human MCF7 cells assessed as inhibition of cell growth incubated for 48 hrs by MTT assay. It counts as functional, cell-based. The following applies: MCF7, 48 h.
Data set [3] can be described thus: Cytotoxicity against human L02 cells assessed as inhibition of cell growth incubated for 48 hrs by MTT assay. The class given is toxicity, cell-based.
Data set [4] has as its system MCF7. Description: Induction of apoptosis in human MCF7 cells assessed as necrotic cells at 25 uM incubated for 24 hrs by Annexin V-FITC/Propidium Iodide staining based flow cytometry analysis (reference value: 0.082 %). The class given is functional.
In data set [5] the test system is MCF7. Put plainly: Induction of apoptosis in human MCF7 cells assessed as viable cells at 25 uM incubated for 24 hrs by Annexin V-FITC/Propidium Iodide staining based flow cytometry analysis (reference value: 91.8 %). It counts as functional. The following applies: read-out: Activity.
For data set [6], the system named is MCF7. Description: Induction of apoptosis in human MCF7 cells assessed as late apoptotic cells at 25 uM incubated for 24 hrs by Annexin V-FITC/Propidium Iodide staining based flow cytometry analysis (reference value: 5.58 %). It counts as functional.
The test system of the next data set is HT-29. Description: Antiproliferative activity against human HT-29 cells assessed as inhibition of cell growth incubated for 48 hrs by MTT assay. It counts as functional, cell-based. The conditions noted are these: HT-29, 48 h.
The subject of the next data set is PC-3. Put plainly: Antiproliferative activity against human PC-3 cells assessed as inhibition of cell growth incubated for 48 hrs by MTT assay. It counts as functional, cell-based. The following applies: PC-3, 48 h.
The subject of data set [7] is MCF7. Put plainly: Induction of DNA double-strand breaks in human MCF7 cells assessed as increase in gamma-H2AX at 10 uM incubated for 48 hrs by DAPI staining based confocal laser scanning microscopy. It counts as functional, cell-based.
Data set [8] deals with MCF7. Description: Induction of DNA damage in human MCF7 cells at 10 uM incubated for 24 hrs by Comet assay. It counts as functional, cell-based.
The next data set concerns A549. Put plainly: Antiproliferative activity against human A549 cells assessed as inhibition of cell growth incubated for 48 hrs by MTT assay. The class given is functional, cell-based. The conditions noted are these: A549, 48 h.
The test system of another data set is 4T1. Description: Antitumor activity against mouse 4T1 cells transplanted in BALB/c mouse assessed as tumor growth inhibition rate at 10 mg/kg, ip administered for 14 days relative to control. It counts as functional. Set-up: scale not given: the % may be the effect or the level left. The conditions noted are these: time 14 day.

Calls of active or inactive are those of the source. The rule behind the calls is not given here.

On to `COc1ccc2c(c1)[nH]c1c(C)nccc12` [HARMINE], for which the Activity with MCF7 [1] is given as 9.74%; in the data set with MCF7 [4], 0.055%; in the data set with MCF7 [6], 7.48%. Besides, the concentration for half-maximal inhibition (IC50) (usually the concentration that inhibits the measured activity by half) was determined as 19.2 µM in the data set on HepG2; 13.2 µM in the data set with MDA-MB-231; 13.4 µM in the data set with MCF7 [2]; 12.2 µM in the data set with HT-29; 15.6 µM in the data set with PC-3. Besides, in data set [3], the half-maximal inhibitory concentration (IC50) at 48 h amounted to 9.49 µM. Also, the viability at 25 µM with MCF7 [5] was 82.7%.
Turning to `CC[C@@]1(O)C(=O)OCc2c1cc1n(c2=O)Cc2cc3ccccc3nc2-1` [CAMPTOTHECIN], the outcome with MCF7 [7] and with MCF7 [8] was Active. In addition, the IC50 in the data set with HepG2 was found to be 1.8 µM; with MDA-MB-231, 0.62 µM; with MCF7 [2], 6.85 µM; in the data set with HT-29, 1.87 µM; in the data set on PC-3, 6.6 µM; with A549, 7.8 µM. The IC50 at 48 h in [3] turned out to be 0.59 µM.
Take `CCc1c2c(nc3ccc(OC(=O)N4CCC(N5CCCCC5)CC4)cc13)-c1cc3c(c(=O)n1C2)COC(=O)[C@]3(O)CC` [IRINOTECAN]: in the data set on 4T1, the Activity worked out at 41.27%.
In the case of `COc1ccc2[nH]c3c(C(=O)/C=C/c4c(OC)cccc4OC)nccc3c2c1`, the concentration for half-maximal inhibition (IC50) in the data set on HepG2 is 7.13 µM; in the data set on MDA-MB-231, 12 µM; with MCF7 [2] it was 5.71 µM; in the data set with HT-29, 13.6 µM; with PC-3 it was greater than 10 µM; in the data set with A549, 15.3 µM. In addition, in data set [3], the IC50 at 48 h is greater than 20 µM.
As for `COc1ccc2[nH]c3c(C(=O)/C=C/c4ccc5c(c4)OCCO5)nccc3c2c1`, the IC50 with HepG2 is 15.6 µM; with MDA-MB-231 it was 18.1 µM; in the data set with MCF7 [2], 14.5 µM; in the data set on HT-29, greater than 20 µM; with PC-3, 3.79 µM; in the data set on A549, greater than 20 µM. The half-inhibitory concentration (IC50) at 48 h in [3] was greater than 20 µM.

The values are drawn from ChEMBL document CHEMBL5518180, “Design, synthesis, and biological evaluation of harmine derivatives as topoisomerase I inhibitors for cancer treatment” (Eur J Med Chem, 2024).
